The subject of experiment [1] is NCI-H226 cells. As to the kind of experiment: Proliferation and cell viability, CellTiter-Glo 2.0 (CTG) assay. Format: cell-based. Particulars: H226-responder cell line, 144 hrs. Here is the method:
(§1) Cell proliferation of a TEAD dependent NF2-null mesothelioma cell line, NCI-H226, and a TEAD-non-dependent mesothelioma cell line, NCI-H28 was assayed using two different protocols: • a) CellTiter-Glo 2.0 (Promega #G9243). The effect of the TEAD inhibitors disclosed herein on cell proliferation was determined in TEAD1-genetically dependent cell line NCI-H226 (responder cell line) and TEAD-independent cell lines (NCI-H23, HEK293T), as non-responder, negative control. Cells were seeded in 96-well plates (Thermo Scientific #167008) in growth media (RPMI-1640, Gibco #61870-010) for NCI-H226 and NCI-H23 or DMEM (Gibco #31966-021, HEK293T) with 10% Heat Inactivated Fetal Bovine Serum (Gibco 10500-064) at 800 (NCI-H226 and HEK-293T) or 2000 (NCI-H23) cells per well at 37° C., 5% CO2, humidified incubator; 24 hours later, fresh growth media containing test compound or DMSO vehicle was added and incubated with the cells for 144 hrs. TEAD inhibitor stocks were made at a 1000× fold excess in DMSO, and a dose response test compound dose range of 10,000 to 0.1 nM was used. Each treatment was carried out in triplicate. After 144 hrs of treatment, relative cell viability numbers were determined using the CellTiter-Glo 2.0 assay following the manufacturer's instructions. Test plates and CellTiter-Glo 2.0 reagent were allowed to equilibrate to room temperature. CellTiter-Glo 2.0 reagent was added at 1:1 reagent to media ratio to the 96-well cell plates, plates were placed on a plate shaker for 2 minutes and then incubated at room temperature for a further 10 minutes to allow complete cell lysis to occur. The mix was then transferred to white, 96-well luminometer assay plates (Greiner Bio One #655075). Luminescence was quantified using a CLARIOStar Plus multi-mode plate reader (BMG Labtech) in luminescence detection mode with the recommended settings (ultra-Glo pre-set: emission 545-50 nm with autofocus and enhanced dynamic range on). Relative cell density was expressed as a function of inhibitor concentration, with respect to DMSO-only control wells. Data where plotted using GraphPad Prism and IC50 values for the biological effect were calculated using the EC50 non-linear fit function using a sigmoidal, 4-parameter logistic, least squares fit with no constraints. • b) Cell Titer One (Promega, #G3582). The effect of the TEAD inhibitors disclosed herein on cell proliferation was also determined using the Promega Substrate Cell Titer Aqueous One Solution Reagent. The TEAD inhibitors were evaluated for the effects on cell proliferation responder (H226) and non-responder negative control cancer cell lines (CAMA1, H28), as well as non-transformed normal human cells (HUVEC, NHDF). Dissociated cells were resuspend in media (depending on cell line, either in DMEM, RPMI, or EMEM all with 10% FBS, with gentamicin as an antibiotic). Cells were seeded at 100 μL/well at 750 cells per well in 96-well plates and allowed to settle and attach. After an incubation of 24 hrs (37° C., 5% CO2, humidified incubator), 100 μL of test compound-containing media was added. A dilution series of 2000× concentrated stock of test compounds was prepared in DMSO, for final concentrations from 0.1 to 10,000 nM. After addition of test compound-containing media, cells were incubated for 6 days at 37° C., 5% CO2, humidified incubators). To measure cell density, 20 μL of Promega Substrate Cell Titer 96 Aqueous One Solution Reagent (Promega, #G3582) to each well was added according to the manufacturer's instructions. Plates were incubated at 37° C. for usually 3-8 hrs, to reach in the control cells (without compound) an OD of 1.5 at 490 nm. The OD was measured using Vmax [Molecular Devices] spectrophotometer plate reader. Media only-wells were used as background controls and cell densities normalized to DMSO vehicle control. ECs were taken as the concentration achieving 50% of maximal growth inhibition.

The subject of another experiment is NCI-H23 cells. The experiment is described as above. Format: cell-based. Particulars: 144 hrs. Here is the method: as §1
For experiment [2], the system named is NCI-H226 cells. As to the kind of experiment: Proliferation, Cell Titer One assay. In kind it is cell-based. Particulars: 6 days. Here is the method: as §1
Another experiment has as its system NCI-H28 cells. As to the kind of experiment: Proliferation, Cell Titer One assay. Format: cell-based. Particulars: 6 days. The method, then:
as §1

Experiment [3] has as its system TEAD/YAP promoter element in MCF7-Luc cells. Put plainly: Cell-based TEAD-promoter transcriptional activity assay (MCF-7 TEAD luciferase). Particulars: Homo sapiens, MCF7; MCF-7 TEAD luciferase assay, 24 hrs. The source says:
Luciferase based TEAD-transcriptional cell-based reporter assay: To measure the effect of the TEAD inhibitors disclosed herein on TEAD transcriptional activity in cell-based systems, we employed a stable MCF7 cell line expressing luciferase under a consensus synthetic TEAD/YAP promoter element (MCF7-Luc, BPS Bioscience, Catalog #60618). This MCF7-TEAD-Luc cell line has been extensively validated with both genetic and pharmacological intervention, showing inhibition of luciferase expression and luminescence in response to ablation of the TEAD/YAP pathway. MCF7-Luc cells were plated at 10,000 cells per well in white 384-well plates and settled by a quick spin. The media was MEM (Gibco) supplemented with 10% fetal bovine serum (ExCell), selenium-transferrin-insulin mix (Gibco), 1× non-essential amino acids (Gibco) and sodium pyruvate (Gibco). Cells were allowed to attach and grow overnight (37° C., 5% CO2 in humidified incubator), and test compounds were added the next day. Compounds were dissolved at 1000× fold excess in DMSO and made into 2-fold serial dilution, and added to media at 30 μL of media per well. A DMSO-only well serves a vehicle control. The highest concentration of drug in media was 1,000 nM. Positive control compounds include K975 (pan-TEAD inhibitor) and negative control (Actinomycin). Cells were incubated for 24 hrs with test compounds and positive controls, after which time, the luminescence was measured by the One-Glo luciferase kit (Promega). 30 μL of One-Glo reagent was added to each well and shaken for 8 minutes to lyse the cells. The plates were centrifugated at 1000 RPM for 1 minute to settle all liquid in the well and eliminate bubbles. Luminescence was quantified using an ENVision plate reader (Perkin Elmer). Percent inhibition of luminescence by test compound was expressed as a function of test compound concentration, with the no-test compound DMSO only wells serving as baseline. EC50 values for each compound were calculated with a non-linear asymptotic line fit.

The next experiment has as its target TEAD1 (Homo sapiens, UniProt P28347). Particulars: cited from earlier work.
In another experiment the target is TEAD2 (Homo sapiens, UniProt Q15562). Conditions: thermal shift, reported data of Tang and Post; cited from earlier work.
TEAD2, sequence (Q15562 whole entry): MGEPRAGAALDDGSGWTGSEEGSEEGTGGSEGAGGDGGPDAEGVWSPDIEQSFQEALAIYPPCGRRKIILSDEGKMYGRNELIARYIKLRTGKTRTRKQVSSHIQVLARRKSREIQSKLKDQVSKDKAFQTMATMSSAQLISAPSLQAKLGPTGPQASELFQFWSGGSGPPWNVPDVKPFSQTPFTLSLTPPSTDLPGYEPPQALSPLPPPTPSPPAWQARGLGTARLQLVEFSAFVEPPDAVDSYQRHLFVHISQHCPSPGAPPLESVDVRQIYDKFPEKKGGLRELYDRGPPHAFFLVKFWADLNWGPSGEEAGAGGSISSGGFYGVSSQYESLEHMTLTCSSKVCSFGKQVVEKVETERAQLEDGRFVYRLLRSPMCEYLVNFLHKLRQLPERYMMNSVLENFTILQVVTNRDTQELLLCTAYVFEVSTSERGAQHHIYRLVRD
A further experiment deals with TEAD3 (Homo sapiens, UniProt Q99594). Particulars: thermal shift, reported data of Tang and Post; cited from earlier work.
TEAD3, sequence (Q99594 whole entry): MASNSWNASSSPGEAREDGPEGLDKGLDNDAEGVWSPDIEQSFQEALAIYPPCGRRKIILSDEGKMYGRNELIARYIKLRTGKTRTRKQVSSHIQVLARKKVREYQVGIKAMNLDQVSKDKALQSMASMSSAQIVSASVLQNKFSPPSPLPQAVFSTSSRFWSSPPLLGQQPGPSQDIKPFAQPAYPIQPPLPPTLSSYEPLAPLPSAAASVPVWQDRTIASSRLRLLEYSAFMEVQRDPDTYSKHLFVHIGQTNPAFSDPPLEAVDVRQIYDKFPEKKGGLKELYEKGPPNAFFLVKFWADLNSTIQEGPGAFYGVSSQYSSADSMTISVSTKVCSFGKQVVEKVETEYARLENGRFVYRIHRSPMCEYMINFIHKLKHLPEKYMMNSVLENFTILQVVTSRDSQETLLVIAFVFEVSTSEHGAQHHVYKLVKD
The target in the next experiment is TEAD4 (Homo sapiens, UniProt Q15561). Particulars: cited from earlier work.
TEAD4, sequence (Q15561 whole entry): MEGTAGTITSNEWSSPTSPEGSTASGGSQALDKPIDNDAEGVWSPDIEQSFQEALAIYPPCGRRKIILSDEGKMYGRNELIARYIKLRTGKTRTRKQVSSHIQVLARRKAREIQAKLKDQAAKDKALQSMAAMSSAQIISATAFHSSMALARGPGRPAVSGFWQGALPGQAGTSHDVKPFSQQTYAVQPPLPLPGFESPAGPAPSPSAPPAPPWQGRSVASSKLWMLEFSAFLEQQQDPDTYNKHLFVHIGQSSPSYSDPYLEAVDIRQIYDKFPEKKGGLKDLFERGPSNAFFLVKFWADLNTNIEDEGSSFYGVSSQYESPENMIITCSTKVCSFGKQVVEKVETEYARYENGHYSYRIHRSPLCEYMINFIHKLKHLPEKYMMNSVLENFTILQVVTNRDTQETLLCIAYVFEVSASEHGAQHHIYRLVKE
The mark [4] stands for this setting: Homo sapiens, NCI-H23, H23-non-responder cell line.
[5] abbreviates: thermal shift assays of Tang and Post.
Setting [6] is: thermal shift, reported data of Tang and Post.

TEAD1, sequence (P28347 whole entry): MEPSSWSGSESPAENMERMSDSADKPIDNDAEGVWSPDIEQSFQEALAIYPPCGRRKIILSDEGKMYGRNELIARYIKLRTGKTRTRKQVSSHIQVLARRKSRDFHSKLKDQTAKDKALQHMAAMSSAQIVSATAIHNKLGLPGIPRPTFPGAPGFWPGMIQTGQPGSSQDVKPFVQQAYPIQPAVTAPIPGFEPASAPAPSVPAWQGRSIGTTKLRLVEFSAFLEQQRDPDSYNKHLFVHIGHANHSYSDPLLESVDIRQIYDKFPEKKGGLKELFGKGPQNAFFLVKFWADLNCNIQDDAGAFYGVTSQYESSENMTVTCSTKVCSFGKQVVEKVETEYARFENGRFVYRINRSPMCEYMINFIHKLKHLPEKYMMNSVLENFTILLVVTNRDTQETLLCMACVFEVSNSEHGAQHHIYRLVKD

In the case of `C[C@H](NC(=O)c1cnc2c(C3=CC[C@@H](C(F)(F)F)CC3)cccc2c1)c1ncco1` (single isomer, unassigned) [Compound 21, N-(1-(oxazol-2-yl)ethyl)-8-(4-(trifluoromethyl)cyclohex-1-en-1-yl)quinoline-3-carboxamide], the IC50 in the experiment with NCI-H226 cells [1] was 200 to 1000 nM; in the experiment on NCI-H23 cells (H23-non-responder cell line), above 1000 nM; with NCI-H226 cells [2] it was 200 to 1000 nM; in the experiment on NCI-H28 cells, above 1000 nM.
In the case of `C[C@H](NC(=O)c1cnc2c(C3=CC[C@@H](C(F)(F)F)CC3)cccc2c1)c1ncco1` (single isomer, unassigned) [Compound 22, N-(1-(oxazol-2-yl)ethyl)-8-(4-(trifluoromethyl)cyclohex-1-en-1-yl)quinoline-3-carboxamide], the 50% inhibitory concentration (IC50) in the experiment with NCI-H226 cells [1] was below 200 nM; in the experiment with NCI-H23 cells (H23-non-responder cell line), above 1000 nM; in the experiment on NCI-H226 cells [2], 200 to 1000 nM; with NCI-H28 cells, above 1000 nM.
For `CC(C)NC(=O)c1cnc2c(C3=CCC(C(F)(F)F)CC3)cccc2c1` (centres unmarked) [Compound 1, N-isopropyl-8-(4-(trifluoromethyl)cyclohex-1-en-1-yl)quinoline-3-carboxamide], the IC50 in the experiment with NCI-H226 cells [1] (Homo sapiens, NCI-H226, 144 h) is below 200 nM; with NCI-H23 cells (setting [4]), above 1000 nM; in the experiment with NCI-H226 cells [2] (Homo sapiens, NCI-H226, 144 h) it was below 200 nM; in the experiment on NCI-H28 cells (Homo sapiens, NCI-H28, 144 h) it was above 1000 nM. In addition, the EC50 in [3] is below 200 nM.
Take `COC[C@H](C)NC(=O)c1cnc2c(C3=CCC(C(F)(F)F)CC3)cccc2c1` (stereo partly drawn) [Compound 6, N—((S)-1-methoxypropan-2-yl)-8-(4-(trifluoromethyl)cyclohex-1-en-1-yl)quinoline-3-carboxamide]: the IC50 in the experiment with NCI-H226 cells [1] (Homo sapiens, NCI-H226, 144 h) was below 200 nM; in the experiment on NCI-H23 cells (setting [4]) it was above 1000 nM; in the experiment with NCI-H226 cells [2] (Homo sapiens, NCI-H226, 144 h) it was below 200 nM; with NCI-H28 cells (Homo sapiens, NCI-H28, 144 h) it was above 1000 nM.
For `CS(=O)(=O)c1cnc2c(C3=CCC(C(F)(F)F)CC3)cccc2c1` (centres unmarked) [Compound 16, 3-(methylsulfonyl)-8-(4-(trifluoromethyl)cyclohex-1-en-1-yl)quinoline], the IC50 was below 200 nM in the experiment on NCI-H226 cells [1] (Homo sapiens, NCI-H226, 144 h); below 200 nM in the experiment on NCI-H226 cells [2] (Homo sapiens, NCI-H226, 144 h); above 1000 nM with NCI-H28 cells (Homo sapiens, NCI-H28, 144 h).
On to `C[C@H](CO)NC(=O)c1ccc2c(Oc3ccc(C(F)(F)F)cc3)cccc2c1` [VT3989], for which the “interaction with TEAD isoforms, in words” value at TEAD1 (setting [5]) is recorded as “primarily interacts with TEAD1-3”. In addition, at TEAD1 (setting [6]), the “TEAD1 ΔTm” value was 11.6 °C. Besides, the “TEAD2 ΔTm” value on TEAD2 is 8.8 °C. The “TEAD3 ΔTm” value on TEAD3 was 8.5 °C. Also, on TEAD4 (setting [5]), the “binding to TEAD4, in words” value is recorded as “lower levels of binding to TEAD4”. Besides, the “TEAD4 ΔTm” value at TEAD4 (setting [6]) is 4.6 °C.
